# In patent US20140038920A1, “TFEB PHOSPHORYLATION INHIBITORS AND USES THEREOF” (FONDAZIONE TELETHON, priority 2011, published 2014):
# How the values were obtained:
# TFEB [1] = assay: TFEB nuclear localization in starved HeLa cells overexpressing TFEB, re-stimulated with media plus supplements or inhibitors (nuclear fractionation, Flag blot, immunofluorescence); type: cell-based; settings: starved cells stimulated with normal medium supplemented with kinase inhibitor (FIG. 2g, 11b)
# Text: (A) Scatter Plot graphs displaying the logarithmic value of the fold change differences in the relative expression levels of 51 autophagy-related genes in HeLa cells cultured in different conditions. X-axis=control group. Y-axis=treated group. Circles represent genes with increased (red) or decreased (green) fold change. Comparisons were as indicated. (B) Chromatin immunoprecipitation (ChIP) analysis. […] Values were normalized to the input and plotted as relative enrichment over a mock control. Experiments were performed in triplicate. (C) qPCR analysis of TFEB-target gene expression in normal, starved, and in TFEB-siRNA starved cells. GAPDH and HPRT represents housekeeping genes, while ATG10, ATG9A and ATG4D represent control genes (non-TFEB target genes). (D-F) HeLa cells stably overexpressing TFEB were left untreated or nutrient starved for 4 h. (D) Five fields containing 50-100 cells/each were analyzed for TFEB nuclear localization. […] (E) Cells were subjected to nuclear/cytosolic fractionation and blotted with Flag antibody. H3 and tubulin were used as nuclear and cytosolic markers, respectively. (F) Nuclear fractions were blotted with Flag and H3 (loading control) antibodies. (G) Western blot analysis of Flag, tubulin and H3 in nuclear extracts prepared from normal, starved and starved/stimulated with normal media cells for 1 h (normal) or pretreated with AP-2 (AKT inhibitor), Rapamycin (mTOR inhibitor) and U0126 (MEK inhibitor) 1 h prior to media stimulation. Total extracts were used to verify the efficiency of the inhibitors. […] Starvation was performed where indicated. (All error bars represent standard deviations. T-test (unpaired) p value (*)<0.05, (**)<0.01)
# Cytosolic and nuclear fractions were subjected to Flag immunoblotting. […] Error bars represent standard deviations.
# Cells were seeded at 50% of confluence in 6 well dishes and serum starved overnight (ON). Normal medium was added the following day either in presence of DMSO or kinase inhibitors. Subcellular fractionation was carried out as previously reported.
# To identify the mechanism of starvation-induced activation of TFEB, the applicants analyzed its subcellular localization and post-translational modifications in starved cells.
# TFEB [2] = assay: TFEB molecular weight shift and localization in TFEB-3xFLAG HeLa cells stimulated with amino-acid rich medium plus inhibitor (FIG. 19B); type: cell-based; settings: Torin 1 250 nM, Rapamycin 2.5 μM
# Experimental: FIG. 19 mTORC1 regulates TFEB. (A) Lysosomal stress inhibits mTOR signaling. Immunoblotting of protein extracts isolated from HeLa cells treated overnight, as indicated. Membranes were probed with antibodies for p-T202/Y204-ERK1/2, ERK1/2, p-T389-S6K, and S6K to measure ERK and mTORC1 activities. […] FLAG immunoblotting of cytosolic and nuclear fractions isolated from TFEB-3×FLAG HeLa cells cultured in amino acid-free media and subsequently stimulated as indicated for at least 3 h. Correct subcellular fractionation was verified with H3 and tubulin antibodies. (C, D) Effects and dose—response curves of ERK and mTOR inhibitors on TFEB nuclear translocation. […] After 3 h at 37° C. in RPMI medium containing one of each of the compounds, the cells were washed, fixed, and stained with DAPI and photographed by using confocal automated microscopy (Opera high content system, Perkin Elmer). (C) Representative images of test concentrations for each compound. Scale bars represent 30 μm. […] The EC50 for each compound was calculated using Prism software (see Materials and Methods for details). (E) Amino acids induce TFEB molecular weight shift. Immunoblotting of protein extracts isolated from HEK-293T cells transfected either TFEB-3×FLAG or with an empty vector were nutrient starved and stimulated for 50 minutes with amino acids (a.a.). Antibody used were p-T389-S6K, S6K and FLAG. (F) Rag knockdown induces TFEB nuclear translocation. HeLa cells stably expressing Flag-3×TFEB were infected with lentiviruses encoding a Short hairpin (Sh-) RNA targeting luciferase (control) or RagC and RagD mRNAs. […] TFEB localization was detected with a FLAG antibody, whereas tubulin and H3 were used as controls for the cytosolic and nuclear fraction, respectively; levels of S6K phosphorylation were used to test RagC and RagD knockdown efficiency.
# The mouse anti-TFEB monoclonal antibody was purchased from My Biosource catalogue No. MBS 120432. To generate anti-pS142 specific antibodies, rabbits were immunized with the following peptide coupled to KLH: AGNSAPN{pSer}[…]. Following the fourth immunization, rabbits were sacrificed and the serum was collected. Non-phosphospecific antibodies were depleted from the serum by circulation through a column containing the nonphosphorylated antigene. The phosphospecific antibodies were subsequently purified using a column containing the phosphorylated peptide. Cells were lysed with M-PER buffer (Thermo) containing protease and phosphatase inhibitors (Sigma); nuclear/cytosolic fractions were isolated as above described. Proteins were separated by SDS-PAGE (Invitrogen; reduced NuPAGE 4-12% Bis-tris Gel, MES SDS buffer). If needed, the gel was stained using 20 ml Imperial Protein Stain (Thermo Fisher) at room temperature for 1 h and de-stained with water. […]
# ERK = assay: p-ERK levels in primary hepatocytes (FIG. 21A); type: cell-based, mouse; settings: primary hepatocytes treated overnight
# Text: Subsequently, cells were lysed and protein extracts were immunoblotted with the indicated antibodies. […] Quantitative PCR (qPCR) of TFEB target genes in primary hepatocytes from control (flox/flox) and Tcfeb−/− (flox/flox; alb-Cre) mice. […] The expression levels are shown as % increased expression of the treated versus the corresponding untreated samples. Values represent means±s.d. of three independent hepatocyte preparations (three mice/genotype). Student's t-test (two tailed) *P-value ≦0.05.
Structure (SMILES),TFEB nuclear localization (TFEB [1]),TFEB subcellular localization after nutrient stimulation (TFEB [2]),TFEB molecular weight shift induced by nutrients (TFEB [2]; U0126 50 μM),levels of p-ERK (ERK)
CO[C@H]1C[C@@H]2CC[C@@H](C)[C@@](O)(O2)C(=O)C(=O)N2CCCC[C@H]2C(=O)O[C@H]([C@H](C)C[C@@H]2CC[C@@H](O)[C@H](OC)C2)CC(=O)[C@H](C)/C=C(\C)[C@@H](O)[C@@H](OC)C(=O)[C@H](C)C[C@H](C)/C=C/C=C/C=C/1C [RAPAMYCIN],no effect,did not affect TFEB subcellular localization,partial molecular weight shift,
CCC(=O)N1CCN(c2ccc(-n3c(=O)ccc4cnc5ccc(-c6cnc7ccccc7c6)cc5c43)cc2C(F)(F)F)CC1 [TORIN 1],,massive TFEB nuclear accumulation,,unaffected
